Data on 29 molecules can be found in ChEMBL document CHEMBL3351528, “Targeting dopamine D3 and serotonin 5-HT1A and 5-HT2A receptors for developing effective antipsychotics: synthesis, biological characterization, and behavioral studies” (J Med Chem, 2014).

The term Ki denotes a measure of affinity in units of concentration, obtained from inhibition or displacement. A lower Ki goes with tighter binding. For orientation: ED50 means the dose that gives a 50% effect, or the effect in half of the subjects.

The target of one data set is D(3) dopamine receptor (Homo sapiens, UniProt P35462).
Chain of D(3) dopamine receptor (P35462 whole entry): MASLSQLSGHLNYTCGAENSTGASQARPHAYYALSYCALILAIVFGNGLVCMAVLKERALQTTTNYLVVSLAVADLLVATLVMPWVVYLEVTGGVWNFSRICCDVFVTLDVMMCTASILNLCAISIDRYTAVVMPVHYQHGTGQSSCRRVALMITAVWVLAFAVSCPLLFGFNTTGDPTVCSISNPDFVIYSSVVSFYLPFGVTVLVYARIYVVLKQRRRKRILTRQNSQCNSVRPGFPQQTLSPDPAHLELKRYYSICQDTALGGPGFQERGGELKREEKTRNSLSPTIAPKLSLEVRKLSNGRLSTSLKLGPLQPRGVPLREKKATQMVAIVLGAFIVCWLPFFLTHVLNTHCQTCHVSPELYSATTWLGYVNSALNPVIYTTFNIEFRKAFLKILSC
The target of data set [1] is T1, 5-hydroxytryptamine receptor 2C (Homo sapiens, UniProt P28335).
T1 sequence (P28335 whole entry): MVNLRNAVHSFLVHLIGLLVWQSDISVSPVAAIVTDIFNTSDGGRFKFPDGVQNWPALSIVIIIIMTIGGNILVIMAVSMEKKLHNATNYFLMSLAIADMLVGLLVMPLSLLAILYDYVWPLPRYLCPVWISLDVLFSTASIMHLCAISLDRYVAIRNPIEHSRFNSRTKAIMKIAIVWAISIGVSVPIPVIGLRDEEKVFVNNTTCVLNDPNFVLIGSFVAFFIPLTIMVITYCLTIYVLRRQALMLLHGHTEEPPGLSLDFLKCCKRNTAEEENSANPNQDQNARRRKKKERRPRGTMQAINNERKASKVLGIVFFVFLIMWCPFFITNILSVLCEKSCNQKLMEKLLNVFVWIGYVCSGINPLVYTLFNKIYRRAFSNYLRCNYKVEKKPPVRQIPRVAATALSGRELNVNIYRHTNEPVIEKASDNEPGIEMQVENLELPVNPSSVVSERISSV
Description: Binding affinity to 5HT2C receptor (unknown origin)

For data set [2], the target named is 5-hydroxytryptamine receptor 2A (Homo sapiens, UniProt P28223).
Chain of 5-hydroxytryptamine receptor 2A (P28223 whole entry): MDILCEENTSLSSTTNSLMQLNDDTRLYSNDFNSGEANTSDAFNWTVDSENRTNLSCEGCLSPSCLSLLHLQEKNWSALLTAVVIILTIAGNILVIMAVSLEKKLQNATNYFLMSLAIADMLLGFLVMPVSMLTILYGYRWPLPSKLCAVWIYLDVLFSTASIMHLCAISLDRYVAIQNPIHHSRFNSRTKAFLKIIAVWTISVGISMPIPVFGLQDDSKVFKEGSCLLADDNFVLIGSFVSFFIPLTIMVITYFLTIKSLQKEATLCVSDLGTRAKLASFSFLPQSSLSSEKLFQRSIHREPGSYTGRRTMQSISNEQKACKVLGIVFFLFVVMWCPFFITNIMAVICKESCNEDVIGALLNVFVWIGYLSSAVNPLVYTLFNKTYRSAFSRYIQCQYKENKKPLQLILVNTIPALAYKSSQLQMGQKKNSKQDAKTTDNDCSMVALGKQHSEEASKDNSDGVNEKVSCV
Description: Binding affinity to 5HT2A receptor (unknown origin)
Another data set addresses D(2) dopamine receptor (Homo sapiens, UniProt P14416).
Data set [3] concerns the target T2, 5-hydroxytryptamine receptor 1A (Homo sapiens, UniProt P08908).
T2 sequence (P08908 whole entry): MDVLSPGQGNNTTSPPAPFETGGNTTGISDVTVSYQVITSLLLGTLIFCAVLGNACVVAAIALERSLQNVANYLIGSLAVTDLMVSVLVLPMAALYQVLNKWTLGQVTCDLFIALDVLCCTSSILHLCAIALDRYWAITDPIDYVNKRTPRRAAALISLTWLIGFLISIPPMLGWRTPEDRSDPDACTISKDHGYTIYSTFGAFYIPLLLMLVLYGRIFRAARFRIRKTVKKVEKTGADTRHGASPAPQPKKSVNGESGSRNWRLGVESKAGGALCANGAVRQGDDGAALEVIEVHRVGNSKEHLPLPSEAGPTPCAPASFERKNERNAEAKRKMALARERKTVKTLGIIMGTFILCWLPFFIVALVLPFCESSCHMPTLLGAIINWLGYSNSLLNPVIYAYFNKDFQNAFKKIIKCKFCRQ
Description: Binding affinity to 5HT1A receptor (unknown origin)

For data set [4], the species on record is Mus musculus. As to the kind of experiment: animal or person. As to conditions: NMRI, sc, read-out: MED.
Description: Antipsychotic-like activity in sc dosed NMRI mouse assessed as reduction in PCP-induced locomotor activity dosed 15 to 30 mins before administration of methamphetamine measured for 60 mins
The species entered for data set [5] is Mus musculus. The note with it: in vivo, sc, 0.5 h.
Description: Effect on spontaneous exploratory locomotor activity in sc dosed NMRI mouse measured for 30 mins with activity counts each 5 mins
The species named for data set [6] is Mus musculus. As to the kind of experiment: animal or person. As to conditions: NMRI, sc.
Description: Antipsychotic-like activity in sc dosed NMRI mouse assessed as reduction in methamphetamine-induced locomotor activity dosed 15 to 30 mins before administration of methamphetamine measured for 60 mins

Bounds are passed on as bounds.

Chain of D(2) dopamine receptor (P14416 whole entry): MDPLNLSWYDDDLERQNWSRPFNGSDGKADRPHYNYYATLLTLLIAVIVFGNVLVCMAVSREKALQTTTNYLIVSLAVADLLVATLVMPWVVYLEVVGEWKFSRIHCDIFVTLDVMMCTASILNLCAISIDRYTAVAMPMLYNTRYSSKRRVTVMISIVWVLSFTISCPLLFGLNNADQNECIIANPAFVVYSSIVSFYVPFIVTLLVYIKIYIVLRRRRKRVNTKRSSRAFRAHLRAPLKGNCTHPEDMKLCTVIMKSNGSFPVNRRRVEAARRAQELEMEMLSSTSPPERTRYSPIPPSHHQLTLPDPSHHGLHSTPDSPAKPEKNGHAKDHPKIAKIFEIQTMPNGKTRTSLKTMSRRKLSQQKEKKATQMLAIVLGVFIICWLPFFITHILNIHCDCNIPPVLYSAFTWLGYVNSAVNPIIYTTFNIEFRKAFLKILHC
Description for D(2) dopamine receptor: Binding affinity to dopamine D2 receptor (unknown origin)
Description for D(3) dopamine receptor: Binding affinity to dopamine D3 receptor (unknown origin)

With `O=C(NCCCCN1CCN(c2ccc(O)cc2)CC1)c1cc2ccccc2cn1`, the Ki was 24 nM on D(3) dopamine receptor; 400 nM in data set [1]; 17 nM in data set [2]; more than 1000 nM at D(2) dopamine receptor; more than 1000 nM in data set [3].
Consider `O=C(NCCCCN1CCN(c2ccccc2)CC1)c1ccccn1`, for which the Ki is 144 nM at D(3) dopamine receptor; more than 1000 nM in data set [1]; 100 nM in data set [2]; more than 1000 nM at D(2) dopamine receptor; 52 nM in data set [3]. Further, the results for the minimal effective dose in the data set filed under Mus musculus [4] and in the data set listed under Mus musculus [6] (read-out: MED) were more than 3 mg/kg and 1 mg/kg, respectively. For the same molecule, in the data set listed under Mus musculus [5], the MED is 3 mg/kg.
Take `COc1cccc(N2CCN(CCCCNC(=O)c3ccc4ccccc4n3)CC2)c1`: the Ki on D(3) dopamine receptor is 31 nM; in data set [1] it was 155 nM; in data set [2], 70 nM; on D(2) dopamine receptor, more than 1000 nM; in data set [3] it was 26 nM.
For `O=C(NCCCCN1CCN(c2ccccn2)CC1)c1cc2ccccc2cn1`, in that order: 41 nM, 1350 nM, 822 nM, 5600 nM and 16 nM.
With `O=C(NCCCCN1CCN(c2ccccc2)CC1)c1cccnc1`, the Ki was 62 nM on D(3) dopamine receptor; more than 1000 nM in data set [1]; 216 nM in data set [2]; more than 1000 nM at D(2) dopamine receptor; 85 nM in data set [3].
On to `Cc1cccc(N2CCN(CCCCNC(=O)c3ccccn3)CC2)n1`, for which the Ki is more than 1000 nM at D(3) dopamine receptor; more than 1000 nM in data set [1]; 240 nM in data set [2]; more than 1000 nM on D(2) dopamine receptor; 3 nM in data set [3].
For `O=C(NCCCCN1CCN(c2ccccn2)CC1)c1ccc2ccccc2n1`, the Ki at D(3) dopamine receptor is 186 nM; in data set [1], more than 1000 nM; in data set [2], 69 nM; on D(2) dopamine receptor it was more than 1000 nM; in data set [3], 24 nM.
`Cc1cccc(N2CCN(CCCCNC(=O)c3cc4ccccc4o3)CC2)c1`: the results for the Ki in data set [1], in data set [2] and in data set [3] were 206 nM, 15.3 nM and 11.9 nM, respectively.
Consider `O=C(NCCCCN1CCN(c2cccc(C(F)(F)F)c2)CC1)c1cc2ccccc2[nH]1`, for which the Ki was determined as 0.2 nM on D(3) dopamine receptor; 22 nM in data set [1]; 4 nM in data set [2]; 53 nM on D(2) dopamine receptor; 1.9 nM in data set [3].
For `Cc1cccc(N2CCN(CCCCNC(=O)[C@@H]3CCc4ccccc4N3)CC2)c1`, in that order: 159 nM, 73.4 nM, 5.1 nM, more than 1000 nM and 43 nM.
`COc1cccc(N2CCN(CCCCNC(=O)c3cc4ccccc4o3)CC2)c1`: the Ki at D(3) dopamine receptor is 8.8 nM; in data set [1], 173 nM; in data set [2], 40 nM; at D(2) dopamine receptor it was more than 1000 nM; in data set [3], 17 nM.
Turning to `O=C(NCCCCN1CCN(c2cccc(F)c2)CC1)c1cc2ccccc2cn1`, the Ki on D(3) dopamine receptor is 3 nM; in data set [1] it was 230 nM; in data set [2], 11 nM; at D(2) dopamine receptor, 160 nM; in data set [3], 11 nM.
As for `Cc1cccc(N2CCN(CCCCNC(=O)[C@H]3CCc4ccccc4N3)CC2)c1`, the Ki at D(3) dopamine receptor turned out to be 122 nM; in data set [1] it was 450 nM; in data set [2], 77 nM; at D(2) dopamine receptor it was 3410 nM; in data set [3] it was 117 nM.
The corresponding values for `Cc1cccc(N2CCN(CCCCNC(=O)c3cc4ccccc4cn3)CC2)n1` are 46 nM, 57 nM, 28 nM, more than 1000 nM and 2 nM.
In the case of `O=C(NCCCCN1CCN(Cc2ccccc2)CC1)c1cc2ccccc2o1`, the Ki was 560 nM on D(3) dopamine receptor; more than 1000 nM in data set [1]; more than 1000 nM in data set [2]; more than 1000 nM on D(2) dopamine receptor; more than 1000 nM in data set [3].
Consider `COc1cccc(N2CCN(CCCCNC(=O)c3ccccn3)CC2)c1`, for which the inhibition constant (Ki) is 214 nM on D(3) dopamine receptor; more than 1000 nM in data set [1]; 179 nM in data set [2]; more than 1000 nM on D(2) dopamine receptor; 36 nM in data set [3].
With `O=C(NCCCCN1CCN(c2ccccc2F)CC1)c1cc2ccccc2o1`, the Ki amounted to 0.3 nM at D(3) dopamine receptor; 79 nM in data set [1]; 18 nM in data set [2]; 76 nM at D(2) dopamine receptor; 15 nM in data set [3].
The corresponding values for `O=C(NCCCCN1CCN(c2cnc3ccccc3c2)CC1)c1cc2ccccc2cn1` are 14 nM, 479 nM, 1000 nM, more than 1000 nM and more than 1000 nM.
For `O=C(NCCCCN1CCN(c2cccc3ccccc23)CC1)c1ccccc1`, in that order: 0.9 nM, 6 nM, 3 nM, 58 nM and 0.7 nM.
The corresponding values for `Cc1cccc(N2CCN(CCCCNC(=O)c3cc4ccccc4o3)CC2)n1` are 24 nM, 61 nM, 27 nM, more than 1000 nM and 2 nM.
On to `O=C(CCCN1CCC(O)(c2ccc(Cl)cc2)CC1)c1ccc(F)cc1` [HALOPERIDOL], for which the ED50 in the data set listed under Mus musculus [5] worked out at 0.08 mg/kg; in the data set listed under Mus musculus [6] it was 0.09 mg/kg.
Take `COc1cccc(N2CCN(CCCCNC(=O)c3c[nH]c4ccccc34)CC2)c1`: the Ki at D(3) dopamine receptor was 40 nM; in data set [1], 602 nM; in data set [2] it was 164 nM; on D(2) dopamine receptor, more than 1000 nM; in data set [3], 59 nM.
`COc1cccc(N2CCN(CCCCNC(=O)c3cc4ccccc4n3C)CC2)c1`: the Ki on D(3) dopamine receptor came out at 1.7 nM; in data set [1], 311 nM; in data set [2] it was 311 nM; on D(2) dopamine receptor it was 219 nM; in data set [3] it was 10 nM.
For `O=C(NCCCCN1CCN(c2ccccc2)CC1)[C@H]1CCc2ccccc2N1`, the Ki on D(3) dopamine receptor is 73 nM; in data set [1] it was more than 1000 nM; in data set [2], 50 nM; at D(2) dopamine receptor it was more than 1000 nM; in data set [3] it was 9.9 nM.
For the molecule `O=C(NCCCCN1CCN(c2ncccn2)CC1)c1cc2ccccc2cn1`, the Ki is 204 nM on D(3) dopamine receptor; more than 1000 nM in data set [1]; 1230 nM in data set [2]; more than 1000 nM at D(2) dopamine receptor; 67 nM in data set [3].
`COc1cccc(N2CCN(CCCCNC(=O)c3cccc(C)n3)CC2)c1`: the Ki was 27 nM at D(3) dopamine receptor; more than 1000 nM in data set [1]; 238 nM in data set [2]; more than 1000 nM at D(2) dopamine receptor; 44 nM in data set [3].
In the case of `O=C(NCCCCN1CCN(c2ccccc2)CC1)c1ccc2ccccc2n1`, the Ki at D(3) dopamine receptor is 61 nM; in data set [1], 475 nM; in data set [2], 98 nM; on D(2) dopamine receptor, more than 1000 nM; in data set [3] it was 94 nM.
For `O=C(NCCCCN1CCN(c2ccccc2)CC1)[C@@H]1CCc2ccccc2N1`, in that order: 45 nM, more than 1000 nM, 22 nM, more than 1000 nM and 85 nM.
For `O=C(NCCCCN1CCN(c2cnc3ccccc3c2)CC1)c1ccccc1`, in that order: 40 nM, more than 1000 nM, more than 1000 nM, 1 nM and more than 1000 nM.
